Experimental data: US20140057895A1, “INDAZOLE- AND PYRROLOPYRIDINE-DERIVATIVE AND PHARMACEUTICAL USE THEREOF” (priority 2011, published 2014)
Structures can show the parent of a compound that is named as a salt.

Columns and labels:
5-HT4 receptor = target: T1, 5-HT4 receptor (Cavia porcellus, UniProt O70528); assay: Test Example 3: Guinea pig 5-HT4 receptor binding assay, [3H]-GR113808, striatum membranes (Table 98); conditions: Guinea pig 5-HT4 receptor binding assay, [3H]-GR113808, striatum membranes; mean value of each group; read-out: IC50
T1 construct: striatum was isolated which was cryopreserved at −80° C. until use; from tissue; host or cells: guinea pig (Slc-Hartley) striatum membranes
Procedure: The guinea pig 5-HT4 receptor binding assay and preparations of receptor membrane preparations herein were carried out according to a method of Grossman et al. [see, British J. Pharmacol., (1993) 109, 618].
Slc-Hartley guinea pigs (body weight 300 g to 400 g) were decapitated to remove brain rapidly, and striatum was isolated which was cryopreserved at −80° C. until use. To the obtained tissues were added fifteen fold of Hepes buffer (50 mM, pH 7.4, 4° C.), and the mixture was homogenized by Teflon (trademark) homogenizer and centrifuged at 48,000×g (4° C.) for 15 minutes. To the resulting precipitate was added Hepes buffer (1 ml) to 30 mg by wet weight of tissues, and the mixture was suspended to give receptor membrane preparations.
To an assay tube were added 0.1 nM [^3H]-GR113808 {chemical name: [1-[2-(methylsulfonylamino) ethyl]-4-piperidinyl]methyl 1-methylindole-3-carboxylate}, receptor membrane preparations, and Hepes buffer (50 mM, pH 7.4, 4° C., 1 ml) containing test compounds or 30 μM serotonin; and the mixture was incubated at 37° C. for 30 minutes. On quenching the reaction, the mixture was rapidly filtered on whatman GF/B filter, which was presoaked in 0.1% polyethyleneimine for 1 hour, by using Brandel cell Harvester, and washed with ice-cooled 50 mM Tris-HCl (pH 7.7, 4 ml) three times. To the filter after filtration was added a liquid scintillator (Ecoscint), and then a radioactivity was determined by a liquid scintillation counter.
50% Inhibition concentrations (IC50) were determined from inhibition rates of test compounds to specific bindings which were obtained by subtracting nonspecific bindings from total binding amounts of [^3H]-GR113808. […]

human 5-HT4b receptor = target: T2, human 5-HT4b receptor (Homo sapiens, UniProt Q13639); assay: Test Example 4: Serotonin 4 (5-HT4) receptor agonist activity assay, cAMP HTRF in CHO cells (Table 100); format: cell-based; conditions: mean value; for Emax: CHO, 0.25 h, intrinsic activity, maximal activity of 5-HT defined as 100%, read-out: IA (%); for EC50: concentration showing 50% of IA
T2 construct: expressed in transfected cells; host or cells: CHO cells (G418 selection)
Procedure: The cAMP measurement test used herein was carried out by using CISBIO HTRF (trademark) cAMP Hirange kit according to the manufacturer's instructions attached therewith.
CHO cells expressing human 5-HT4b receptor were incubated in Medium 1 [DMEM/1% NEAA, 1% penicillin/streptomycin (P/S), 0.2 mg/mL GENETICIN (G418), 10% FBS] at 37° C. under 5% CO2 condition. Then, the cells were put into Medium 2 (DMEM/10000 cut FBS, G-418, P/S, NEAA) for 1 to 2 hours, and collected by treating with trypsin containing EDTA. The collected cells were suspended in Assay Buffer 1 [100 mM Hanks/HEPES buffer (pH 7.4)], the suspended cells were mixed with the testing compound on 384-well plates, and the cells were incubated at 31° C. for 15 minutes. To the cells were added cAMP-cryptate solution and cAMP-d2 solution, and they were incubated at room temperature for 1 hour. Then, time-resolved fluorescence was measured by En Vision (excitation wavelength: 330 nm, fluorescence wavelength: 620/665 nm).
An intrinsic activity of the compound [IA (%)] and a concentration showing 50% of IA [EC50 (nM)] were calculated from the obtained results. In particular, the intrinsic activity (IA) was calculated on the basis of the maximal activity of 5-HT (measured from 10^−11 M to 10^−7 M) defined as 100%.
In the following table, the compounds used in the test are shown in numbers which correspond to the Example numbers above where the preparations of the compounds are described.

T1 sequence (O70528 whole entry): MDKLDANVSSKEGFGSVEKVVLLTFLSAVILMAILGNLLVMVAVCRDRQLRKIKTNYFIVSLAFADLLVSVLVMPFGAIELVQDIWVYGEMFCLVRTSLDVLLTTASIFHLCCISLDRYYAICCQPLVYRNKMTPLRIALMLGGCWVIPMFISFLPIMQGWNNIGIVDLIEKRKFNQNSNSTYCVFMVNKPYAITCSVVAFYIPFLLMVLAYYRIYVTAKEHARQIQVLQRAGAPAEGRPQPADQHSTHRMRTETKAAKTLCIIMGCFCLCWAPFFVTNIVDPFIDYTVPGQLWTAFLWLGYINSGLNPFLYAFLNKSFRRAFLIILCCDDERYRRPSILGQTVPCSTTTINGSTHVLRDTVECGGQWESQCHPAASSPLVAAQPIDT
T2 sequence (Q13639 whole entry): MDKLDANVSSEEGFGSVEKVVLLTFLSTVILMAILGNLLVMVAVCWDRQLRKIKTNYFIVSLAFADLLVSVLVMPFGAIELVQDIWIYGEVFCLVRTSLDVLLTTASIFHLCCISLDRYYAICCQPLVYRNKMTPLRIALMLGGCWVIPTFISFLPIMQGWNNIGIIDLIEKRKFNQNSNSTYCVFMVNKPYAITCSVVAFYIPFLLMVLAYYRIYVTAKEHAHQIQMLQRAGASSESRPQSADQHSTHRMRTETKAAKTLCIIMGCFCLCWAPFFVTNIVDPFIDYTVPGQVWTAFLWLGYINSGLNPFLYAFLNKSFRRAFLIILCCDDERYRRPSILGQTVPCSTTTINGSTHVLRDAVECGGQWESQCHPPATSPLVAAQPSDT

Question: Which IC50 (5-HT4 receptor) does the source give for CCc1nn(-c2noc(C3CCN(C[C@@H]4CCN(C(C)=O)C4)CC3)n2)c2c(F)cccc12 [Example 201, 1-[(3S)-3-({4-[3-(3-ethyl-7-fluoro-1H-indazol-1-yl)-1,2,4-oxadiazol-5-yl]piperidin-1-yl}methyl)pyrrolidin-1-yl]ethanone] here?
Answer: < 20 nM

Question: And the Emax (human 5-HT4b receptor)?
Answer: 39.7%

Question: What about the EC50 (human 5-HT4b receptor) of the same molecule?
Answer: 6.8 nM

Question: For CCc1nn(-c2noc(C3CCN(C[C@@H]4CCN(C(=O)COC)C4)CC3)n2)c2c(F)cccc12 [Example 202, 1-[(3S)-3-({4-[3-(3-ethyl-7-fluoro-1H-indazol-1-yl)-1,2,4-oxadiazol-5-yl]piperidin-1-yl}methyl)pyrrolidin-1-yl]-2-methoxyethanone], which IC50 (5-HT4 receptor) is on record?
Answer: < 20 nM

Question: And the Emax (human 5-HT4b receptor)?
Answer: 39%

Question: And the EC50 (human 5-HT4b receptor)?
Answer: 5.8 nM

Question: With CCc1nn(-c2noc(C3CCN(C[C@@H]4CCN(S(C)(=O)=O)C4)CC3)n2)c2c(F)cccc12 [Example 203, 3-ethyl-7-fluoro-1-[5-(1-{[(3S)-1-(methylsulfonyl)pyrrolidin-3-yl]methyl}piperidin-4-yl)-1,2,4-oxadiazol-3-yl]-1H-indazole] as the molecule, how does the IC50 (5-HT4 receptor) read?
Answer: < 20 nM

Question: What about the Emax (human 5-HT4b receptor) of the same molecule?
Answer: 71.8%

Question: And the EC50 (human 5-HT4b receptor)?
Answer: 1.1 nM

Question: Which IC50 (5-HT4 receptor) does the source give for CCc1nn(-c2noc(C3CCN(C[C@H]4CCN(C(C)=O)C4)CC3)n2)c2c(F)cccc12 [Example 209, 1-[(3R)-3-({4-[3-(3-ethyl-7-fluoro-1H-indazol-1-yl)-1,2,4-oxadiazol-5-yl]piperidin-1-yl}methyl)pyrrolidin-1-yl]ethanone hydrochloride] here?
Answer: < 20 nM

Question: And the Emax (human 5-HT4b receptor)?
Answer: 79.1%

Question: What about the EC50 (human 5-HT4b receptor) of the same molecule?
Answer: 3.7 nM

Question: Which IC50 (5-HT4 receptor) does the source give for CCc1nn(-c2noc(C3CCN(C[C@H]4CCN(C(=O)COC)C4)CC3)n2)c2c(F)cccc12 [Example 210, 1-[(3R)-3-({4-[3-(3-ethyl-7-fluoro-1H-indazol-1-yl)-1,2,4-oxadiazol-5-yl]piperidin-1-yl}methyl)pyrrolidin-1-yl]-2-methoxyethanone hydrochloride] here?
Answer: < 20 nM

Question: And the Emax (human 5-HT4b receptor)?
Answer: 68.6%

Question: What about the EC50 (human 5-HT4b receptor) of the same molecule?
Answer: 5 nM

Question: For CCc1nn(-c2noc(C3CCN(C[C@H]4CCN(S(C)(=O)=O)C4)CC3)n2)c2c(F)cccc12 [Example 216, 3-ethyl-7-fluoro-1-[5-(1-{[(3R)-1-(methylsulfonyl)pyrrolidin-3-yl]methyl}piperidin-4-yl)-1,2,4-oxadiazol-3-yl]-1H-indazole], which IC50 (5-HT4 receptor) is on record?
Answer: < 20 nM

Question: What about the Emax (human 5-HT4b receptor) of the same molecule?
Answer: 62.3%

Question: What about the EC50 (human 5-HT4b receptor) of the same molecule?
Answer: 4.6 nM

Question: With CC(=O)N1CC(CN2CCC(c3nc(-n4nc(C(C)C)c5cccc(F)c54)no3)CC2)C1 [Example 219, 1-{3-[(4-{3-[7-fluoro-3-(propan-2-yl)-1H-indazol-1-yl]-1,2,4-oxadiazol-5-yl}piperidin-1-yl)methyl]azetidin-1-yl}ethanone hydrochloride] as the molecule, how does the IC50 (5-HT4 receptor) read?
Answer: < 20 nM

Question: What about the Emax (human 5-HT4b receptor) of the same molecule?
Answer: 96.9%

Question: What about the EC50 (human 5-HT4b receptor) of the same molecule?
Answer: 2.8 nM

Question: What does the source list for COC(=O)N1CC(CN2CCC(c3nc(-n4nc(C(C)C)c5cccc(F)c54)no3)CC2)C1 [Example 220, methyl 3-[(4{3-[7-fluoro-3-(propan-2-yl)-1H-indazol-1-yl]-1,2,4-oxadiazol-5-yl}piperidin-1-yl)methyl]azetidine-1-carboxylate hydrochloride]?
Answer: IC50 (5-HT4 receptor): < 20 nM; Emax (human 5-HT4b receptor): 92.4%; EC50 (human 5-HT4b receptor): 4.8 nM

Question: What does the source list for COCC(=O)N1CC(CN2CCC(c3nc(-n4nc(C(C)C)c5cccc(F)c54)no3)CC2)C1 [Example 221, 1-{3-[(4-{3-[7-fluoro-3-(propan-2-yl)-1H-indazol-1-yl]-1,2,4-oxadiazol-5-yl}piperidin-1-yl)methyl]azetidin-1-yl}-2-methoxyethanone hydrochloride]?
Answer: IC50 (5-HT4 receptor): < 20 nM; Emax (human 5-HT4b receptor): 86.1%; EC50 (human 5-HT4b receptor): 6.1 nM

Question: CCc1nn(-c2noc(C3CCN(CC4CN(C(C)=O)C4)CC3)n2)c2c(F)cccc12 [Example 223, 1-[3-({4-[3-(3-ethyl-7-fluoro-1H-indazol-1-yl)-1,2,4-oxadiazol-5-yl]piperidin-1-yl}methyl)azetidin-1-yl]ethanone hydrochloride] was tested. Which IC50 (5-HT4 receptor) did it give?
Answer: < 20 nM

Question: What about the Emax (human 5-HT4b receptor) of the same molecule?
Answer: 72.7%

Question: What about the EC50 (human 5-HT4b receptor) of the same molecule?
Answer: 3.4 nM

Question: Which IC50 (5-HT4 receptor) does the source give for COCC(=O)N1CCC(N2CCC(c3nc(-n4nc(C(C)C)c5cccc(F)c54)no3)CC2)CC1 [Example 233, 1-(4-{3-[7-fluoro-3-(propan-2-yl)-1H-indazol-1-yl]-1,2,4-oxadiazol-5-yl}-1,4′-bipiperidin-1′-yl)-2-methoxyethanone hydrochloride] here?
Answer: < 20 nM

Question: And the Emax (human 5-HT4b receptor)?
Answer: 93.5%

Question: What about the EC50 (human 5-HT4b receptor) of the same molecule?
Answer: 2.9 nM

Question: With CCc1nn(-c2noc(C3CCN(C4CCN(C(=O)COC)CC4)CC3)n2)c2c(F)cccc12 [Example 237, 1-{4-[3-(3-ethyl-7-fluoro-1H-indazol-1-yl)-1,2,4-oxadiazol-5-yl]-1,4′-bipiperidin-1′-yl}-2-methoxyethanone hydrochloride] as the molecule, how does the IC50 (5-HT4 receptor) read?
Answer: < 20 nM

Question: And the Emax (human 5-HT4b receptor)?
Answer: 51.9%

Question: And the EC50 (human 5-HT4b receptor)?
Answer: 9.7 nM

Question: How did the IC50 (5-HT4 receptor) turn out when CCc1nn(-c2noc(C3CCN(C4CCN(S(C)(=O)=O)CC4)CC3)n2)c2c(F)cccc12 [Example 241, 4-[3-(3-ethyl-7-fluoro-1H-indazol-1-yl)-1,2,4-oxadiazol-5-yl]-1′-(methylsulfonyl)-1,4′-bipiperidine] was run?
Answer: < 20 nM

Question: And the Emax (human 5-HT4b receptor)?
Answer: 58.8%

Question: What about the EC50 (human 5-HT4b receptor) of the same molecule?
Answer: 3.2 nM

Question: For CCc1nn(-c2noc(C3CCN(C[C@H]4CCN(C(=O)CO)C4)CC3)n2)c2c(F)cccc12 [Example 247, 1-[(3R)-3-({4-[3-(3-ethyl-7-fluoro-1H-indazol-1-yl)-1,2,4-oxadiazol-5-yl]piperidin-1-yl}methyl)pyrrolidin-1-yl]-2-hydroxyethanone], which IC50 (5-HT4 receptor) is on record?
Answer: < 20 nM

Question: And the Emax (human 5-HT4b receptor)?
Answer: 79%

Question: What about the EC50 (human 5-HT4b receptor) of the same molecule?
Answer: 12.7 nM

Question: What does the source list for CC(C)c1nn(-c2noc(CCCN3CCCCC3)n2)c2c(F)cccc12 [Example 394, 7-fluoro-1-{5-[3-(piperidin-1-yl)propyl]-1,2,4-oxadiazol-3-yl}-3-(propan-2-yl)-1H-indazole]?
Answer: IC50 (5-HT4 receptor): < 20 nM; Emax (human 5-HT4b receptor): 101%; EC50 (human 5-HT4b receptor): 3.1 nM

Question: CC(C)c1nn(-c2noc(C3CCN(C(C)(C)CO)CC3)n2)c2c(F)cccc12 [Example 402, 2-(4-{3-[7-fluoro-3-(propan-2-yl)-1-indazol-1-yl]-1,2,4-oxadiazol-5-yl}piperidin-1-yl)-2-methylpropan-1-ol] was tested. Which IC50 (5-HT4 receptor) did it give?
Answer: < 20 nM

Question: And the Emax (human 5-HT4b receptor)?
Answer: 106%

Question: What about the EC50 (human 5-HT4b receptor) of the same molecule?
Answer: 1.8 nM

Question: For COc1ccc(F)c2c1c(C(C)C)nn2-c1noc(C2CCN(C3CCN(C(C)=O)CC3)CC2)n1 [Example 405, 1-(4-{3-[7-fluoro-4-methoxy-3-(propan-2-yl)-1H-indazol-1-yl]-1,2,4-oxadiazol-5-yl}-1,4′-bipiperidin-1′-yl)ethanone], which IC50 (5-HT4 receptor) is on record?
Answer: 65.4 nM

Question: What about the Emax (human 5-HT4b receptor) of the same molecule?
Answer: 21.6%

Question: And the EC50 (human 5-HT4b receptor)?
Answer: 34.2 nM

Question: Which results are given for CC(C)c1nn(-c2noc(C3CCN(C4CCC4)CC3)n2)c2ccccc12 [Example 420, 1-[5-(1-cyclobutylpiperidin-4-yl)-1,2,4-oxadiazol-3-yl]-3-(propan-2-yl)-1H-indazole trifluoroacetate]?
Answer: IC50 (5-HT4 receptor): 73.9 nM; Emax (human 5-HT4b receptor): 85.6%; EC50 (human 5-HT4b receptor): 8.2 nM

Question: With CCc1nn(-c2noc(C3CCN(CC4CCOCC4)CC3)n2)c2cc(C)ccc12 [Example 435, 3-ethyl-6-methyl-1-{5-[1-(tetrahydro-2H-pyran-4-ylmethyl)piperidin-4-yl]-1,2,4-oxadiazol-3-yl}-1H-indazole trifluoroacetate] as the molecule, how does the IC50 (5-HT4 receptor) read?
Answer: 44.7 nM

Question: And the Emax (human 5-HT4b receptor)?
Answer: 1.6%

Question: And the EC50 (human 5-HT4b receptor)?
Answer: 11.9 nM

Question: Which IC50 (5-HT4 receptor) does the source give for CCc1nn(-c2noc(C3CCN(C(C)C)CC3)n2)c2c(F)c(F)ccc12 [Example 445, 3-ethyl-6,7-difluoro-1-{5-[1-(propan-2-yl)piperidin-4-yl]-1,2,4-oxadiazol-3-yl}-1H-indazole trifluoroacetate] here?
Answer: < 20 nM

Question: What about the Emax (human 5-HT4b receptor) of the same molecule?
Answer: 52.1%

Question: What about the EC50 (human 5-HT4b receptor) of the same molecule?
Answer: 13.2 nM

Question: How did the IC50 (5-HT4 receptor) turn out when CCc1nn(-c2noc(C3CCN(C4CCCC4)CC3)n2)c2c(F)c(F)ccc12 [Example 447, 1-[5-(1-cyclopentylpiperidin-4-yl)-1,2,4-oxadiazol-3-yl]-3-ethyl-6,7-difluoro-1H-indazole-trifluoroacetate] was run?
Answer: < 20 nM

Question: What about the Emax (human 5-HT4b receptor) of the same molecule?
Answer: 56.8%

Question: And the EC50 (human 5-HT4b receptor)?
Answer: 12.2 nM
